Assay results published in the supplement of paper PMC10307832.

Assays:
Assay in all cases: relative viability (nuclei count vs DMSO), 5 days (fraction); higher = more cells survive
R406 + Bortezomib = compound: COc1cc(Nc2ncc(F)c(Nc3ccc4c(n3)NC(=O)C(C)(C)O4)n2)cc(OC)c1OC [R406] + CC(C)C[C@H](NC(=O)[C@H](Cc1ccccc1)NC(=O)c1cnccn1)B(O)O [Bortezomib] (partner 0.002 µM)
Method in brief: (§1)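 Relative viability divides the nuclei count in treated wells by that in vehicle wells. Lung cancer cell lines were seeded in 1536-well plates, dosed by pin tool the next day, and fixed and stained after 5 days in one step with final 0.05% Triton X-100, 1% formaldehyde and 1 ug/ml Hoechst. Dosing was a single drug or a fixed anchor-drug dose plus five library-drug doses (not always all listed) in √10 steps, and values are medians of duplicate plates imaged at 4×.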

R406 + Dasatinib = compound: COc1cc(Nc2ncc(F)c(Nc3ccc4c(n3)NC(=O)C(C)(C)O4)n2)cc(OC)c1OC [R406] + Cc1nc(Nc2ncc(C(=O)Nc3c(C)cccc3Cl)s2)cc(N2CCN(CCO)CC2)n1 [Dasatinib] (partner 0.075 µM)
Method in brief: as §1

Daporinad + Trametinib = compound: O=C(/C=C/c1cccnc1)NCCCCC1CCN(C(=O)c2ccccc2)CC1 [Daporinad] + CC(=O)Nc1cccc(-n2c(=O)n(C3CC3)c(=O)c3c(Nc4ccc(I)cc4F)n(C)c(=O)c(C)c32)c1 [Trametinib] (partner 0.02 µM)
Method in brief: as §1

Daporinad + Foretinib = compound: O=C(/C=C/c1cccnc1)NCCCCC1CCN(C(=O)c2ccccc2)CC1 [Daporinad] + COc1cc2c(Oc3ccc(NC(=O)C4(C(=O)Nc5ccc(F)cc5)CC4)cc3F)ccnc2cc1OCCCN1CCOCC1 [Foretinib] (partner 0.25 µM)
Method in brief: as §1

Row | Cell Line | relative viability (R406 + Bortezomib; first compound 0.08 µM) | relative viability (R406 + Bortezomib; first compound 0.253 µM) | relative viability (R406 + Bortezomib; first compound 0.8 µM) | relative viability (R406 + Bortezomib; first compound 2.53 µM) | relative viability (R406 + Bortezomib; first compound 8 µM) | relative viability (R406 + Dasatinib; first compound 0.08 µM) | relative viability (R406 + Dasatinib; first compound 0.253 µM) | relative viability (R406 + Dasatinib; first compound 0.8 µM) | relative viability (R406 + Dasatinib; first compound 2.53 µM) | relative viability (R406 + Dasatinib; first compound 8 µM) | relative viability (Daporinad + Trametinib; first compound 0.0005 µM) | relative viability (Daporinad + Trametinib; first compound 0.001581 µM) | relative viability (Daporinad + Trametinib; first compound 0.005 µM) | relative viability (Daporinad + Trametinib; first compound 0.01581 µM) | relative viability (Daporinad + Foretinib; first compound 0.0005 µM) | relative viability (Daporinad + Foretinib; first compound 0.001581 µM) | relative viability (Daporinad + Foretinib; first compound 0.005 µM) | relative viability (Daporinad + Foretinib; first compound 0.01581 µM)
1 | NCI-H1975 | 0.444 | 0.39 | 0.401 | 0.162 | 0.178 | 0.377 | 0.479 | 0.379 | 0.174 | 0.112 | 0.329 | 0.286 | 0.341 | 0.454 | 0.892 | 0.952 | 0.966 | 0.931
2 | CAL-12T | 0.927 | 1.18 | 1.11 | 0.423 | 0.218 | 0.357 | 0.397 | 0.483 | 0.0973 | 0.0797 | 0.275 | 0.378 | 0.37 | 0.229 | 1.09 | 0.938 | 0.758 | 0.272
3 | NCI-H2342 | – | – | – | – | – | 0.309 | 0.321 | 0.341 | 0.303 | 0.277 | 1.04 | 0.82 | 0.782 | 0.844 | 1.09 | 0.974 | 1.01 | 0.969
4 | HCC-44 | 0.927 | 1.07 | 1 | 0.312 | 0.603 | – | – | – | – | – | 1.02 | 1.15 | 1.08 | 1.07 | – | – | – | –
5 | EKVX | 1.01 | 1.17 | 1.45 | 0.994 | 0.6 | 0.626 | 0.32 | 0.511 | 0.402 | 0.367 | 0.288 | 0.329 | 0.43 | 0.372 | 0.747 | 0.443 | 0.877 | 0.756
6 | NCI-H1651 | 0.921 | 1.06 | 0.9 | 0.935 | 0.948 | 0.402 | 0.468 | 0.451 | 0.221 | 0.198 | 0.854 | 0.825 | 0.823 | 0.757 | 0.722 | 0.769 | 0.623 | 0.595
7 | NCI-H1648 | – | – | – | – | – | – | – | – | – | – | 0.469 | 0.418 | 0.417 | 0.447 | – | – | – | –
8 | NCI-H1703 | 0.451 | 0.32 | 0.588 | 0.183 | 0.167 | – | – | – | – | – | – | – | – | – | 0.33 | 0.347 | 0.302 | 0.282
9 | Calu-6 | 0.997 | 1.06 | 1.04 | 0.631 | 0.557 | – | – | – | – | – | – | – | – | – | 0.768 | 0.874 | 0.772 | 0.35
10 | EBC-1 | 0.606 | 0.616 | 0.672 | 0.44 | 0.231 | – | – | – | – | – | – | – | – | – | 0.101 | 0.0907 | 0.0742 | 0.0756
11 | A-427 | 0.948 | 1.01 | 1.03 | 0.526 | 0.74 | 0.743 | 0.746 | 0.74 | 0.427 | 0.54 | 0.695 | 0.825 | 0.778 | 0.708 | 1.01 | 1.06 | 1.08 | 0.596
12 | NCI-H2347 | 1.07 | 1.25 | 1.19 | 0.815 | 0.642 | 0.322 | 0.339 | 0.324 | 0.319 | 0.299 | 0.301 | 0.288 | 0.281 | 0.329 | 1.13 | 1.17 | 1.35 | 1.33
13 | NCI-H1355 | 1.23 | 1.29 | 1.44 | 1.02 | 0.957 | 0.754 | 0.79 | 0.777 | 0.491 | 0.32 | 0.409 | 0.465 | 0.298 | 0.557 | 0.997 | 1.01 | 1.06 | 1.02
14 | NCI-H1944 | – | – | – | – | – | 0.22 | 0.207 | 0.209 | 0.164 | 0.153 | 0.449 | 0.464 | 0.469 | 0.399 | 0.897 | 0.903 | 0.971 | 0.945
15 | RERF-LC-KJ | 1.15 | 1.23 | 1.26 | 0.932 | 1.01 | 0.782 | 0.878 | 0.939 | 0.678 | 0.503 | 0.788 | 1.01 | 0.955 | 0.921 | 0.787 | 0.809 | 0.911 | 0.886
16 | NCI-H2228 | 1.05 | 1.15 | 1.32 | 0.118 | 0.304 | 0.442 | 0.695 | 0.646 | 0.195 | 0.135 | 0.439 | 0.18 | 0.576 | 0.531 | 0.904 | 0.82 | 1.24 | 1.09
17 | HOP-62 | 0.835 | 0.656 | 0.559 | 1.02 | 0.82 | 0.618 | 0.73 | 0.797 | 0.729 | 0.391 | 0.453 | 0.427 | 0.484 | 0.422 | 0.838 | 1.01 | 1.1 | 0.639
18 | HARA | 1.07 | 1.21 | 1.15 | 0.991 | 0.389 | 0.235 | 0.267 | 0.296 | 0.248 | 0.113 | 0.833 | 0.761 | 0.627 | 0.403 | 0.942 | 0.98 | 0.922 | 0.279
19 | PC-14 | 0.874 | 0.957 | 0.909 | 0.604 | 0.704 | 0.271 | 0.241 | 0.283 | 0.105 | 0.0312 | 0.657 | 0.654 | 0.722 | 0.572 | 0.985 | 1.06 | 1 | 1.01
20 | NCI-H1755 | 0.994 | 1 | 0.974 | 0.748 | 0.571 | 0.401 | 0.508 | 0.407 | 0.264 | 0.135 | 0.751 | 0.761 | 0.779 | 0.768 | 0.928 | 0.46 | 0.848 | 0.966
21 | HCC-78 | 0.491 | 0.541 | 0.51 | 0.306 | 0.241 | 0.362 | 0.335 | 0.4 | 0.307 | 0.237 | 0.68 | 0.821 | 0.71 | 1.1 | 0.54 | – | 0.594 | 0.62
